Source: PMC9697349, “Mouse Pharmacokinetics and In Vitro Metabolism of SH-11037 and SH-11008, Synthetic Homoisoflavonoids for Retinal Neovascularization” (Pharmaceutics, 2022)

Test: Mouse pharmacokinetics, single i.v. dose
Format: in vivo
Settings: plasma, iv, single i.v. dose of SH-11008 3 mg/kg, male ICR mice
Method: Pharmacokinetic studies were performed with male ICR mice (8 weeks old, 30~35 g) purchased from Koatech Co. (Kyunggi, Korea) as reported previously. Test compounds were dissolved at 1 mg/mL in DMA/Tween 80/20% aqueous HPβCD (10/10/80 vol%) to prepare the dosing solutions. SH-11037 was administered by oral (p.o.) gavage at a dose of 10 mg/kg and a dose volume of 10 mL/kg (equimolar to 6 mg/kg of SH-11008) or intravenously (i.v.) via tail vein injection at a dose of 5 mg/kg and a dose volume of 5 mL/kg (equimolar to 3 mg/kg of SH-11008), respectively. SH-11008 was administered p.o. at a dose of 6 mg/kg and a dose volume of 6 mL/kg or i.v. at a dose of 3 mg/kg and a dose volume of 3 mL/kg, respectively. Plasma samples were analyzed as described below in Section 2.6.1.
Calibration standards and quality control (QC) samples were prepared by spiking 15 μL of blank plasma with 5 μL of analyte working solution prepared in 50 vol% aqueous CH3CN. For sample preparation, 15 μL aliquots of plasma samples combined with 5 μL of 50 vol% aqueous CH3CN were mixed with 3 volumes of ice-cold CH3CN containing glipizide (500 ng/mL) as the IS. The mixture was vortexed, sonicated, and centrifuged at 3000× g for 20 min. The supernatant was then mixed with the same volume of HPLC grade water before analysis. Sample analyses were conducted using Agilent 1290 Infinity HPLC system coupled to Agilent 6460 Triple Quadrupole LC-MS/MS system equipped with Jet Stream ESI ion source (Agilent Technologies Korea, Seoul, Korea). Chromatographic separation was performed on an Agilent Eclipse Plus C18 column (2.1 × 100 mm, 3.5 μm) with a Phenomenex Security Guard C18 guard column (4 × 20 mm) maintained at 40 °C. The mobile phase consisted of 0.1% formic acid in deionized water (A) and 0.1% formic acid in CH3CN (B): 0~2 min 5% B, 2~3 min to 95% B, and 3~6.5 min 95% B. Total run time including a 3 min equilibration time was 9.5 min. The flow rate was 0.45 mL/min. The injection volume was 5 µL. Detection of the analyte ions was performed in the positive multiple reaction monitoring (MRM) mode, with the following mass transitions (precursor > product): m/z 644 > 588, 397 > 367, and 446 > 321 for SH-11037, SH-11008 and IS, respectively. […] The lower limit of quantitation of SH-11037 and SH-11008 were 0.24 and 0.48 ng/mL, respectively, with a signal-to-noise ratio based on root mean square noise > 10. The calibration curves were linear in the range of 0.24–500 ng/mL (r^2 > 0.997) for SH-11037 and 0.48–500 ng/mL (r^2 > 0.998) for SH-11008, respectively. The precision and accuracy of the analytical method were evaluated with the QC samples prepared in triplicate at 5, 250, and 400 ng/mL for both of SH-11037 and SH-11008: the coefficient of variation (%CV) and the relative error (%RE) were in the ranges of −21.23~5.72% and 1.47~12.30% for SH-11037 and −22.85~4.96% and 1.2~13.8% for SH-11008, respectively. Extraction recovery, matrix effect, and process efficiency were in the ranges of 91.8~107.1%, 86.3~99.9%, and 88.8~100.8% for SH-11037 and 88.9~103.8%, 88.9~100.0%, and 80.0~97.4% for SH-11008, respectively. Quantitative analysis data were obtained with Agilent Mass Hunter Quantitative Analysis QQQ (ver. B.05.00) software.
Pharmacokinetic parameters were calculated by noncompartmental analysis of plasma concentration versus time profiles using PKSolver. The scaling factors of mice and human, half-life (t1/2), intrinsic clearance (CLint), hepatic clearance (CLH), and hepatic extraction ratio (EH) were from the in vitro studies as described previously. […] The fraction of parent drug converted to the metabolite (fm) was calculated as follows:fm (%) = (AUC(m) × CL(m))/D × MWparent/MWmetabolite × 100,(1) where D is dose of the parent drug, AUC(m) is area under the curve for the metabolite after a dose of parent drug, CL(m) is CL of metabolite, and MW is molecular weight.

Cmax: 770 ± 1160 ng/mL
Tmax: 5 min
clearance: 210 ± 17.2 mL/min/kg
half-life (n = 3, read-out: t1/2 of SH-11008): 3.5 ± 0.5 min
AUC(0-inf) (read-out: AUCinf of SH-11008 (converted)): 239 ng·h/mL
AUC(0-t) (read-out: AUClast of SH-11008 (converted)): 239 ng·h/mL
Vd (read-out: Vss): 0.5 ± 0.1 L/kg
Structure (SMILES): COc1ccc(CC2COc3cc(OC)c(OC)c(OC)c3C2=O)cc1O (stereo not shown) [SH-11008]
